Values quoted from earlier work, collected in patent US20200163962A1, “PHARMACEUTICAL COMPOSITION OF NILOTINIB” (SUN PHARMACEUTICAL INDUSTRIES LTD., priority 2016, published 2020).

Tests used:
[1] = particularly the hydrochloride
[2] = ingested with or after meals, particularly high fat meals

increase of systemic exposure (AUC) compared to the fasted state (dose given 30 minutes after a high fat meal): 82% | increase of Cmax with food [2]: 112% | increase of area under the plasma profile curve with food [2]: 82% | water solubility [1]: poorly water soluble
Structure (SMILES): Cc1cn(-c2cc(NC(=O)c3ccc(C)c(Nc4nccc(-c5cccnc5)n4)c3)cc(C(F)(F)F)c2)cn1 [Nilotinib, 4-methyl-N-[3-(4-methyl-1H-imidazol-1-yl)-5-(trifluoromethyl)phenyl]-3-[[4-(3-pyridinyl)-2-pyrimidinyl]amino]-benzamide]
